Assay results from patent US12121525B2, “Methods for treating GI syndrome and graft versus host disease” (Sloan Kettering Institute for Cancer Research, priority 2007, dated 2024).

Columns and labels:
C57BL/6 hepatocytes [1] = format: cell-based
Method: FIGS. 16A-16F. In vivo activated allogeneic CTLs require target hepatocyte ASMase for efficient killing ex vivo. Hepatocytes, isolated as described in Example 1, were coincubated with splenic T cells harvested from lethally-irradiated wild type C57BL/6 recipients 10-14 days following transplantation of LP BM+T cells. FIG. 16A: 2×10^6 GvH-activated CTLs were coincubated with 0.5×10^6 wild type C57BL/6 or B6.MRL.1pr (FasR^−/−) hepatocytes (left panel) in complete medium for 16 hr. […] Apoptosis was quantified following fixation by nuclear bisbenzimide staining. FIG. 16B: asmase^−/− hepatocytes are resistant to apoptosis induced by GvH-activated CTLs. CTL coincubation was performed as in FIG. 16A and apoptosis was quantified 16 hr thereafter. FIG. 16C: Representative images of asmase^+/+ (top left panel) and asmase^−/− (bottom left panel) C57BL/6 hepatocytes following 10 min coincubation in suspension with 2×10^6 GvH-activated T cells. Hepatocytes were fixed and stained with DAPI and Cy-3-labelled anti-ceramide mAb as described in Example 1. Arrows indicate ceramide-rich platform generation on the outer leaflet of the plasma membrane. […] FIG. 16D: Quantification of ceramide-rich platforms in asmase^+/+ and asmase^−/− hepatocytes following incubation with 2×10^6 GvH-activated CTLs. […] Apoptosis was quantified as in FIG. 16A. […] 0.5×10^6 wild type hepatocytes, preincubated with 50 μg/mL nystatin for 30 min and resuspended in RPMI containing 1% lipid-free FBS, were coincubated with 2×10^6 GvH-activated T cells and apoptosis was quantified as in FIG. 16A. […]
To assess whether ceramide-mediated raft clustering into membrane platforms is an essential component of cytolytic T cell (CTL)-induced apoptosis of hepatocytes, we blocked raft clustering pharmacologically and examined the impact on alloactivated CTL-induced hepatocyte apoptosis in vitro. […] Co-incubation induced increased hepatocyte apoptosis from a baseline of 4.7±0.7% to 33.8±1.9% by 16 hr, as detected by nuclear morphologic changes (FIG. 16A). […]

C57BL/6 hepatocytes [2] = format: cell-based; details: not shown
Method: Whereas Fas-mediated apoptotic death receptor activation requires generation of ceramide-rich platforms in some cell systems, CTL-induced platform generation was assessed in asmase^+/+ and asmase^−/− hepatocytes in the ex vivo model of GvHD. Alloactivated T cells induced rapid generation of ceramide-rich platforms on the surface of the target hepatocytes 10 min following co-incubation (FIG. 16C). Platform generation increased within one minute, peaked at 10 min, and persisted for over 60 min (FIG. 16D). Fas, required for apoptosis in this system, concentrated within the ceramide-rich platform as determined by confocal microscopy.
Platforms were detected as previously described. […]; Sigma-Aldrich) for 45 min at 4° C., washed twice in PBS containing 0.1% Triton X-100 and mounted in fluorescent mounting medium (Dako, Carpenteria CA). Fluorescence was detected using an Axiovert S-100 Zeiss fluorescence microscope equipped with a SPOT digital camera. The percentage of cells containing platforms, i.e. those in which the fluorescence condenses onto less than 15% of the cell surface, was determined by counting 150-250 cells per point. Alternately, platforms were identified using a mouse monoclonal anti-ceramide antibody MID 15B4 IgM (1:50 dilution, Alexis Biochemicals), mouse monoclonal anti-Fas CH-11 IgM (1:500 dilution, Upstate Biotechnology) or polyclonal rabbit anti-ASMase antibody 1598 (1:100 dilution) and detected using Cy3-conjugated anti-mouse or anti-rabbit IgM (1:500 dilution, Roche Molecular Biochemicals), respectively. Rabbit polyclonal anti-CD46 (1:1000 dilution, Santa Cruz Biotechnology, Santa Cruz CA) was used as a negative control. In some studies, confocal images were obtained using a Leica TCS SPZ upright confocal microscope. Alternatively, 0.5×10^6hepatocytes were stimulated for the indicated times with CTLs and platform formation was assessed as described.

C57BL/6 mice = details: intravenous, prior to TBI; cited from earlier work
C57BL/6 splenocytes [3] = experiment: MLR-primed CTL-induced splenocyte lysis (51Cr release); format: cell-based, mouse; details: 500 nM
Method: To show the generic role of target cell ASMase in T cell-induced lysis, we used two standardized assays for T cell function; MLR-primed CTL-induced splenocyte lysis (FIG. 17) and in vitro activation-induced cell death (AICD) of T cells (FIG. 18). The role of target cell ASMase was assessed in an in vitro activated MLR, in which C57BL/6 splenocyte target cells of asmase^+/+ or asmase^−/− genotype were stimulated for 48 hrs with mitogen, washed and chromium labeled. These cells were then coincubated with effector Balb/c splenocytes activated for 5 days by culture with irradiated C57BL/6 splenocytes. Chromium release was quantified and the % lysis was calculated. […] Washed splenocytes cells were coincubated with increasing ratios of activated effector Balb/c T cells, and ^51Cr release was quantified 6 hour thereafter. […]
To evaluate a potential generic role for target cell ASMase in platform generation in T cell-induced lysis, we tested two standardized assays for T cell-mediated cytolysis, MLR-primed CTL-induced splenocyte lysis, and in vitro AICD of T cells. […] Furthermore, MLR-primed CTLs induced 43.2±6.5% asmase^+/+ splenocyte lysis at an effector:target ratio of 50:1 (FIG. 19B), attenuated to 7.3±2.5% lysis in asmase^−/− target cells, as quantified by ^51Cr-release assay. […]

splenic T cells [4] = experiment: Activation-induced cell death (AICD) assay, T cell apoptosis; format: cell-based, mouse; details: 500 nM; 16 hr
Source text: To define a role for target cell ASMase in AICD, asmase^+/+, asmase^−/− or MRL.1pr (FasR^−/−) T cells were stimulated for 24 hr with 10 microgam/ml ConA, washed, rested in medium containing 20 U/ml rIL-2 for 24 hr, and finally AICD was initiated by restimulation in medium containing 20 U/ml rIL-2 and increasing concentrations of plate bound anti-CD3 mAb for 24 hr. AICD induction by anti-CD3 mAb conferred ceramide-rich platform generation 4 hr following stimulation (FIG. 19D), evident in 26.4±1.6% of the population of asmase^+/+ T cells compared to 5.1±1.0% of asmase^−/− T cells (p<0.005). Confocal analysis identified colocalization of the sphingolipid GM1 (FIG. 19E) and Fas within ceramide-rich platforms in asmase^+/+ T cells.
To characterize the impact of platform generation on AICD, asmase^+/+ and asmase^−/− T cells were induced to undergo AICD and apoptosis was quantified 16 hr thereafter. Apoptosis in asmase^+/+ T cells was anti-CD3 mAb dose-dependent, reaching 32.9±5.2% apoptosis 16 hr post induction (FIG. 19F). […]
Harvested splenocytes were enriched for T lymphocytes by nylon wool passage, resulting in >90% purity based upon FITC-CD3 mAb staining by flow cytometry. […] Cells were subsequently fixed, stained with 25 μl of 24 μg/ml bis-benzimide trihydrochloride solution (Hoechst #33258; Sigma-Aldrich, Milwaukee Wisc.) and apoptosis was quantified by fluorescence microscopy, as above.

C57BL/6 splenocytes [5] = experiment: Platform generation on target splenocytes coincubated with MLR-primed CTLs; details: 500 nM
splenic T cells [6] = experiment: Platform generation in T cells after AICD induction; details: 500 nM; not shown

**Q.** Which CTL-induced hepatocyte apoptosis (C57BL/6 hepatocytes [1]; CTLs incubated 2 hr with 100 ng/ml CMA, wild type hepatocytes, 16 hr) does the source give for `C/C=C/[C@H]1O[C@@](O)([C@@H](C)[C@H](O)[C@H](C)[C@H]2OC(=O)/C(OC)=C/C(C)=C/[C@@H](C)[C@@H](O)[C@@H](CC)[C@@H](O)[C@H](C)C/C(C)=C/C=C/[C@@H]2OC)C[C@@H](O[C@H]2C[C@@H](O)[C@H](OC(N)=O)[C@@H](C)O2)[C@@H]1C` [CMA, concanamycin A] here?
**A.** The CTL-induced hepatocyte apoptosis was “no effect”.

**Q.** Which “2×10^6 alloactivated CTL-induced hepatocyte apoptosis” value (C57BL/6 hepatocytes [1]; wild type hepatocytes preincubated with 50 μg/mL nystatin for 30 min) does the source give for `C[C@@H]1[C@H](O)[C@@H](C)/C=C/C=C/CC/C=C/C=C/C=C/C=C/C(O[C@H]2O[C@H](C)[C@@H](O)[C@H](N)[C@@H]2O)CC2O[C@](O)(CC(O)C(O)CCC(O)CC(O)CC(O)CC(=O)O[C@H]1C)CC(O)C2C(=O)O` (some centres unmarked) [nystatin] here?
**A.** The value was “completely inhibited”.

**Q.** And the “CTL-induced ceramide-rich platform generation” value (C57BL/6 hepatocytes [2]; wild type hepatocytes, nystatin 50 μg/mL 30 min)?
**A.** Its value is “abrogated”.

**Q.** What does the source list for bFGF: endothelial cell survival factor?
**A.** crypt stem cell clonogens (C57BL/6 mice): preserved; lethality from the GI syndrome (C57BL/6 mice): protected; radiation-induced endothelial apoptosis of the intestinal microvascular system (C57BL/6 mice): attenuated

**Q.** Which results are given for `CCCCCCCCCCCCCCCC(=O)N[C@@H](CO)[C@H](O)CCCCCCCCCCCCCCC` [C16-dihydroceramide]?
**A.** CTL-induced lysis of asmase−/− target splenocytes (C57BL/6 splenocytes [3]): ineffective; apoptosis of asmase−/− T cells stimulated to undergo AICD (splenic T cells [4]): not; platform generation on asmase−/− target splenocytes (C57BL/6 splenocytes [5]): ineffective; CTL-induced platform generation in asmase−/− hepatocytes (C57BL/6 hepatocytes [2]): failed to restore; platform generation in asmase−/− T cells stimulated to undergo AICD (splenic T cells [6]): not
